Test system: ApoE−/− mice
Test: Arteriosclerotic area of ApoE−/− mice aortic outflow tract
Assay type: in vivo
Settings: high fat diet, vs HG (p<0.01), atorvastatin 50 mg/kg/d, total saponins 300 mg/kg/d, 6 weeks
Description: ApoE−/− mice were divided into four groups randomly by weight.
(1) Negative control group (CG): mice in this group were fed normally for 7 weeks, and intragastrically administrated with normal saline.
(2) High fat control group (HG): mice in this group were fed with high fat diet containing 0.2% cholesterol for 7 weeks, and intragastrically administrated with normal saline every day simultaneously.
(4) I. kudingcha total saponin therapeutic group (SG): the course of treatment is similar to that of AG, with the only difference between SG and AG lies in that the dosage of the total saponins from I. kudingcha is 300 mg/kg/d.
Effect of total saponins from I. kudingcha leaves on arteriosclerotic area of ApoE−/− mice aortic outflow tract is shown in FIG. 7.

**Q.** How did the “inhibition rate of formation of atherosclerotic plaque of aortic outflow tract” value turn out when `CC(C)c1c(C(=O)Nc2ccccc2)c(-c2ccccc2)c(-c2ccc(F)cc2)n1CC[C@@H](O)C[C@@H](O)CC(=O)O` [atorvastatin] was run?
**A.** Its value is “about 40%”.
